Data on one compound can be found in ChEMBL document CHEMBL4130400, “Development of GLUT4-selective antagonists for multiple myeloma therapy” (Eur J Med Chem, 2017).

Each structure is given as a SMILES string. Calls of active or inactive are those of the source. The calls are words filed in the database; no cut-off is given here.

Data set [1] has as its system Bone marrow cell. Description: Cytotoxicity in multiple myeloma patient derived CD38(-)/CD45(-) non-myeloma bone marrow cells at 10 uM in presence of ABT-199 incubated for 48 hrs by CellTiter-Glo assay. Particulars: human. Format: cell-based. On the technique in general: Cellular ATP, detected with luciferase, serves as a proxy for viable cell number.
For data set [2], the target named is T1, GLUT1 (solute carrier family 2, facilitated glucose transporter member 1) (Rattus norvegicus, UniProt P11167).
T1 sequence (P11167 whole entry): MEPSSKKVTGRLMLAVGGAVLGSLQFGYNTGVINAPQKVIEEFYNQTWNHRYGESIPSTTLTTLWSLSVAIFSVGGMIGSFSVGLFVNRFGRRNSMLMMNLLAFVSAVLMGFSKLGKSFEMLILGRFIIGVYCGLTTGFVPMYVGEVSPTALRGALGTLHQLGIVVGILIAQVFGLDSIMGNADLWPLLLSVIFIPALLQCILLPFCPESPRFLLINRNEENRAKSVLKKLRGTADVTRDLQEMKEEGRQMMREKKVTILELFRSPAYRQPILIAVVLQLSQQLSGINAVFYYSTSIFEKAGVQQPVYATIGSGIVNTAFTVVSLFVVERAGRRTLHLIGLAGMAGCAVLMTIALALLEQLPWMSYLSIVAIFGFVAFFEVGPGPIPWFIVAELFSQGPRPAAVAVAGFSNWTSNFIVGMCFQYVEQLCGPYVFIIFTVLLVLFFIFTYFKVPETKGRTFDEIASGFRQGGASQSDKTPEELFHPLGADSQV
Description: Displacement of ATB-BMPA from rat C-terminal 6His/Myc-tagged GLUT1 expressed in HEK293 cell low density microsome assessed as ATB-BMPA binding level at 20 uM preincubated for 10 mins followed by ATB-BMPA addition measured after 10 mins relative to control. The conditions noted are these: probe ATB-BMPA, read-out: Activity. Format: cell-based.

For the next data set, the system named is JJN-3. The experiment in a line: Inhibition of [3H]2-deoxy-D-glucose uptake in human JJN-3 cells transfected with GLUT4 shRNA preincubated for 5 to 6 mins followed by [3H]2-deoxy-D-glucose addition measured after 4 to 6 mins. The class given is functional, cell-based.
Data set [3] has as its system KMS-11. The experiment in a line: Antiproliferative activity against human KMS11 cells over-expressing GFP after 72 hrs by CellTiter-Glo assay. The class given is functional, cell-based. Particulars: KMS-11, 72 h.
The target of data set [4] is T2, Solute carrier family 2, facilitated glucose transporter member 8 (Homo sapiens, UniProt Q9NY64).
T2 sequence (Q9NY64 whole entry): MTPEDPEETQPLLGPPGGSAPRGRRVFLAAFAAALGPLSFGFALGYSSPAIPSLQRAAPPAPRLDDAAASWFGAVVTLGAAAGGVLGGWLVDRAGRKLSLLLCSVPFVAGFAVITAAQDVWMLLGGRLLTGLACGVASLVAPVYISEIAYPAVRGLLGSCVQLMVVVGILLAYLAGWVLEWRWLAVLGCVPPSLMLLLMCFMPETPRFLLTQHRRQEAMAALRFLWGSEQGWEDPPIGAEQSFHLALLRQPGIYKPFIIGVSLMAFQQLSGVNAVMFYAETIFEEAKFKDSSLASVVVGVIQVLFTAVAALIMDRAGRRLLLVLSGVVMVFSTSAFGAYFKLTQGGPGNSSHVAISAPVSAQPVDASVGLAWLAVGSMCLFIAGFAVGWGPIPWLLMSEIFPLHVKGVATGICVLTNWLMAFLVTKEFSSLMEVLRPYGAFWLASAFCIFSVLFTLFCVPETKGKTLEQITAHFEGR
The experiment in a line: Antagonist activity at human GLUT8 expressed in HEK293 cells transfected with GLUT1 shRNA assessed as inhibition of [3H]2-deoxy-D-glucose uptake preincubated for 5 mins followed by [3H]2-deoxy-D-glucose addition and measured after 6 mins. The class given is cell-based.

The subject of data set [5] is Bone marrow cell. The experiment in a line: Cytotoxicity in multiple myeloma patient derived CD38(-)/CD45(-) non-myeloma bone marrow cells at 10 uM in presence of dexamethasone incubated for 48 hrs by CellTiter-Glo assay. The class given is cell-based. Particulars: human.
In data set [6] the target is T3, Solute carrier family 2, facilitated glucose transporter member 4 (Homo sapiens) (UniProt P14672).
T3 sequence (whole entry): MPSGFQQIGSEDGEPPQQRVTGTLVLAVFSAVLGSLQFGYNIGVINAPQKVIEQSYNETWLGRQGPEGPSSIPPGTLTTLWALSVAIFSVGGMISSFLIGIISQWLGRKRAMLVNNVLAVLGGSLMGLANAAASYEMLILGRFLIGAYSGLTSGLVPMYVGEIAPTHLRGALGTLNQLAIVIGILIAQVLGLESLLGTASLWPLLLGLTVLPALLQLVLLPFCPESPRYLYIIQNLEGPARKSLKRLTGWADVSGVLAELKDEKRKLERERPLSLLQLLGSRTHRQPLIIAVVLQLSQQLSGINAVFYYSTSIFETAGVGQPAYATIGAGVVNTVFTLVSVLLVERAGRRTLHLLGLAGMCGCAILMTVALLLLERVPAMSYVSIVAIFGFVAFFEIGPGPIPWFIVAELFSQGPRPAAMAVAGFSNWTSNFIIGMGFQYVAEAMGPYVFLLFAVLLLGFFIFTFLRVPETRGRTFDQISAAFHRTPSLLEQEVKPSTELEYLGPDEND
Description: Antagonist activity at GLUT4 in human MM1S cells assessed as increase in sensitivity to dexamethasone-induced cytotoxicity by measuring cell death at 10 uM after 72 hrs by CellTiter-Glo assay. The class given is cell-based.

Data set [7] addresses T3, Solute carrier family 2, facilitated glucose transporter member 4 (Homo sapiens). The experiment in a line: Antagonist activity at GLUT4 in human JJN-3 cells assessed as increase in sensitivity to ABT-199-induced cytotoxicity by measuring cell death at 10 uM after 72 hrs by CellTiter-Glo assay. Format: cell-based.
The subject of data set [8] is KMS-11. The experiment in a line: Cytotoxicity against human KMS11 cells after 72 hrs by AnnexinV/DAPI staining-based flow cytometric analysis. The class given is functional, cell-based.

As to `COc1ccc(CC(=O)N(Cc2ccncc2)Cc2cccc(OCCc3ccc(F)cc3)c2)cc1`, the Activity entry in the data set on Bone marrow cell [1] and in the data set with Bone marrow cell [5] was “Non-Toxic” each time. For the same compound, the activity at 10 min, 20 µM in data set [2] was 35%. Also, the inhibition result (in the data set on JJN-3; in data set [6]; in data set [7]) was “Active” throughout. The IC50 (as a rule, the concentration that gives 50% inhibition) in the data set on KMS-11 [3] was 13.4 µM; in data set [4], above 100 µM. In the data set on KMS-11 [8], the Activity entry is “Active”.
